Key:
EGFR = target: T1, EGFR (Homo sapiens, UniProt P00533); assay: Mechanism of action study / Ki determination; format: biochemical
T1 construct: residues H672-A1210 of human EGFR, Proqinase; purchased Proqinase
Procedure: Enzymatic activity was measured by standard methods after dilution of the enzyme-inhibitor complex.

Dopamine, Non-selective = assay: NovaScreen assay; format: binding
Histamine, H3 = target: T2, Histamine, H3 (Homo sapiens, UniProt Q9Y5N1); assay: NovaScreen assay; format: binding; details: read-out: Inhibition, 10 μM XL-647
T2 construct: NovaScreen
T2 sequence (Q9Y5N1 whole entry): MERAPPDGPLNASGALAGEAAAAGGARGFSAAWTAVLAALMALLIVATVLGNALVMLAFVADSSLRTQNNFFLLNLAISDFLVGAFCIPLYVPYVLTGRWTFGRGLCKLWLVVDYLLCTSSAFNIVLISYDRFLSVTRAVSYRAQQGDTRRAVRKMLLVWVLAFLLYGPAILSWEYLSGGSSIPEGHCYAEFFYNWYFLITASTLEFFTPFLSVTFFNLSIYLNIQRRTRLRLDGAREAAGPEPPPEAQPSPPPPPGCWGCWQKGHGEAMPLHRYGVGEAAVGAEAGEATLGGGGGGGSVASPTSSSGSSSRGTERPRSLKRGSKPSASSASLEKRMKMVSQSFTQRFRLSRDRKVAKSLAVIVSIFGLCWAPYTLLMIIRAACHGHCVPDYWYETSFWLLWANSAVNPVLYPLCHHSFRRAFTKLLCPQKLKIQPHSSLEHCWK

[1] = tested on: Muscarinic, Non-selective, Peripheral; assay: NovaScreen assay; format: binding
[2] = target: T3, Potassium Channel, Ca2+ Act., VS (Homo sapiens, UniProt Q12791); assay: NovaScreen assay; format: binding; details: read-out: Inhibition, 10 μM XL-647
T3 construct: NovaScreen
T3 sequence (Q12791 whole entry): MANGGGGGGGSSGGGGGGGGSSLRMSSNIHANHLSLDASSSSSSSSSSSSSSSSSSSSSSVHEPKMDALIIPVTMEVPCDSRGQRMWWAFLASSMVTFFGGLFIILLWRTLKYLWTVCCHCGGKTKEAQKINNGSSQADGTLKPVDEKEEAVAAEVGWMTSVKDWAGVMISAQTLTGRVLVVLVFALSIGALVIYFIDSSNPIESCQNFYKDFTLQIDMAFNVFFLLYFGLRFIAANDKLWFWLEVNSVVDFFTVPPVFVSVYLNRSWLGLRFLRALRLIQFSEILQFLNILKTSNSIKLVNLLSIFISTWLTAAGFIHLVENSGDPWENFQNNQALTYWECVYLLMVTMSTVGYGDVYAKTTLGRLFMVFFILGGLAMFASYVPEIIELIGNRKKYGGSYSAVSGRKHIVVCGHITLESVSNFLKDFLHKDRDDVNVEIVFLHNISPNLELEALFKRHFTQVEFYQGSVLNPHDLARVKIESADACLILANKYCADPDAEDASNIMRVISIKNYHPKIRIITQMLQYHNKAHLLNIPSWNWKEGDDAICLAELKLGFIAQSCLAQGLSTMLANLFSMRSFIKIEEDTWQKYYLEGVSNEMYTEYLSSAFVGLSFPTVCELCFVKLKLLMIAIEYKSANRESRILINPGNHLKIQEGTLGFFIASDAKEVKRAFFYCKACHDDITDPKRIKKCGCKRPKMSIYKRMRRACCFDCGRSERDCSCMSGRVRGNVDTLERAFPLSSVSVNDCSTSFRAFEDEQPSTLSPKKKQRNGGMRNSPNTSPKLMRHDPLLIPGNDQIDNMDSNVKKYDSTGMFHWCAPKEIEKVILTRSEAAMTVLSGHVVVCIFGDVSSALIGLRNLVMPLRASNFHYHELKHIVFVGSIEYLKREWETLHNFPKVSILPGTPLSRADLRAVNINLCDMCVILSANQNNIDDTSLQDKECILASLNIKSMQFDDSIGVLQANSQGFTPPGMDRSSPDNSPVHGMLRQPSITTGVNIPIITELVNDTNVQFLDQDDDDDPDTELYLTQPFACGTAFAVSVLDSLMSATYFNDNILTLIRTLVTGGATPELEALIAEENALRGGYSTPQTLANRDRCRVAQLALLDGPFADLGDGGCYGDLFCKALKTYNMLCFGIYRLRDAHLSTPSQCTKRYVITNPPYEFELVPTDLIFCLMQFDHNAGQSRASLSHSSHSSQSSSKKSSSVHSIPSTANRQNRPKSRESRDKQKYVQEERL

[3] = target: T4, GABA A, BDZ, alpha 1, Central (Homo sapiens, UniProt P14867+P18507); assay: NovaScreen assay; format: binding; details: read-out: Inhibition, 10 μM XL-647
T4 construct: NovaScreen
T4 sequence (P14867 28-456): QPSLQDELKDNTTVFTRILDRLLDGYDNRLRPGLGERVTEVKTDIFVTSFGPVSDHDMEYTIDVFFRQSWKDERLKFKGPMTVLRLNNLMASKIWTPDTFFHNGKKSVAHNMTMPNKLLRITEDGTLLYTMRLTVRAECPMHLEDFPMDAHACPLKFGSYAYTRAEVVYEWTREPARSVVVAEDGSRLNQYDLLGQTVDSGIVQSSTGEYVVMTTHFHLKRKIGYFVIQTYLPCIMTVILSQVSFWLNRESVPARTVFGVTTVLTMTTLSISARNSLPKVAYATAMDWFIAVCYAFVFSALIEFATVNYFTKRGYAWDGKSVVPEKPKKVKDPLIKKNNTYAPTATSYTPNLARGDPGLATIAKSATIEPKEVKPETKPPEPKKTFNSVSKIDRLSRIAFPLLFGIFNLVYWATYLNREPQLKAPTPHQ
T4 sequence (P18507 40-475): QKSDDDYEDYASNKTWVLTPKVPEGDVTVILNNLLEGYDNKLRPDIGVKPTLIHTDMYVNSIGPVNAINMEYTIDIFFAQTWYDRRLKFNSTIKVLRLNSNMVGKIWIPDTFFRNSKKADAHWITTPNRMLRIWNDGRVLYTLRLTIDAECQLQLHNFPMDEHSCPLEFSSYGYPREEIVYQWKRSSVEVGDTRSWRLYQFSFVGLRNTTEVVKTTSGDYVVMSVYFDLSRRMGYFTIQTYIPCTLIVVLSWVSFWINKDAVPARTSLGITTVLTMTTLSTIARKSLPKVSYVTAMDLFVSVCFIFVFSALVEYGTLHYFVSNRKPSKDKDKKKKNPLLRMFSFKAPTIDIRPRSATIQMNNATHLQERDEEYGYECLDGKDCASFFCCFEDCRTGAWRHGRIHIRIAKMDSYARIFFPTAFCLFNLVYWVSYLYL
T4 sequence (P47870 25-512 partner limits assumed): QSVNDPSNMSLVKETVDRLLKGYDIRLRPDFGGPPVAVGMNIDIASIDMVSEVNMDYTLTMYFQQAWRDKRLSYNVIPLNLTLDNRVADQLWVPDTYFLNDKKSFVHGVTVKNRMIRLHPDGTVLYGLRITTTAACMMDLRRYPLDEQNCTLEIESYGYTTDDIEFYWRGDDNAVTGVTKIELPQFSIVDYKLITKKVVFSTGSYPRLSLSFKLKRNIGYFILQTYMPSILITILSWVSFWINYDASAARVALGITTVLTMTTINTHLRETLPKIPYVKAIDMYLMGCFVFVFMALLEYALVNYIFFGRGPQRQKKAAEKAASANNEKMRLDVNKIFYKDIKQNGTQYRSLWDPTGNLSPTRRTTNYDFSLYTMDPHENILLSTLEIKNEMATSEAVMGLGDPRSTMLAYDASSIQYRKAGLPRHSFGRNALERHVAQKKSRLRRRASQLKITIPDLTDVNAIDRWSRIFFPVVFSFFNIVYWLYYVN

[4] = target: T5, EGFR phosphorylation (H1975 cells) (Homo sapiens, UniProt P00533, L858R/T790M); assay: Immunoblot analysis of H1975 cell lysates; format: cell-based
T5 construct: host or cells: H1975 (cultured cells; s.c. xenografts in mice)
Procedure: For the H1975 immunoblot studies, 3×10^5 cells were plated in each well (12-well plate) and incubated for 16 h in complete RPMI 1640, rinsed with fetal bovine serum-free RPMI 1640, and incubated with serial dilutions of test compounds in fetal bovine serum-free medium for 2 h followed by stimulation with 100 ng/mL human recombinant EGF for 10 min. Whole-cell protein lysates were prepared as described above and centrifuged for 10 min at 13,000×g at 4° C. to remove any insoluble material. Total protein was determined using bicinchoninic acid reagent and an equal amount of protein was combined with LDS loading buffer (Invitrogen) according to the manufacturer's instructions. Proteins were separated by gel electrophoresis on 4% to 15% polyacrylamide gels, transferred to nitrocellulose membranes, and detected by immunoblotting. Antibody:antigen complexes were detected using chemiluminescence. The following antibodies from Cell Signaling Technology were used at a 1:1,000 dilution: anti-EGFR, anti-pEGFR^Tyr1068, anti-AKT, anti-pAKT^Ser473, anti-ERK, and anti-pERK^Thr202/Tyr204. The anti-β-actin primary antibody (Accurate Chemical and Scientific) was used at 1:10,000 and the horseradish peroxidase-coupled secondary antibodies were purchased from Jackson ImmunoResearch and used at 1:5,000.

in vivo = details: for AUC(0-t) / Cmax / half-life: po; for dosing terminated because of toxicity: 2 days
Procedure: The nonclinical Pharmacokinetics (PK) of XL-647 was studied in mice, rats, dogs, and monkeys. Animals were dosed either once or daily over several days, as described in Table 21 and 22 below. A summary of results can also be found in Tables 21 and 22 below. […] Mean tmax values were approximately 4 to 8 hours, and plasma terminal half-lives ranged from 9.41 to 20.9 hours.

[5] = Clinical Study XL-647-001 (Phase 1, Intermittent 5&9 schedule); details: human, in vivo
Procedure: (§1) Enrollment is complete, and all subjects have been off study as of 31 May 2007. Subjects initially received a powder in bottle (PIB) formulation using mass-based dosing. […] The final cohort received a fixed dose of 350 mg in a tablet formulation.

[6] = tested on: subjects with advanced solid tumors; assay: as above
Procedure: as §1

EGFR WT (pCMV/Lx-1) = EGFR WT (pCMV/Lx-1) (Homo sapiens, UniProt P00533); assay: EGFR phosphorylation ELISA in transfected Lx-1 cells
Text: Lx-1 cells were used because they lack background EGFR activity. A clone corresponding to the longest EGFR isoform (Genbank accession no. NM_005228.3/NP_005219.2 #21-176, Upstate Biotechnology) was used as a template to produce two mutant EGFR genes (coding for L858R and L861Q) by site-directed mutagenesis. The WT and the two sequence-verified mutants were transferred to a COOH-terminal Flag-tagged retroviral cytomegalovirus promoter-driven mammalian expression vector. The two Tet-On expression vectors, EGFR WT (Tet-On) and EGFRvIII (Tet-On), which were COOH-terminally Flag tagged, were generously provided by Dr. Abhijit Guha (University of Toronto, Toronto, Ontario, Canada).
Transient transfections of Lx-1 cells were done using Lipofectamine 2000 (Invitrogen) according to the manufacturer's protocol. For transfections of the WT, L858R, and L861Q constructs, 1 μg plasmid DNA was used for each transfection (each well of a 12-well plate). […]
For the EGFR phosphorylation ELISA, Reacti-Bind streptavidin-coated plates (Pierce) were coated with 2 μg/mL biotin-conjugated anti-Flag antibody (Sigma). […] Horseradish peroxidase activity was determined by reading the plates in a Victor2 plate reader following addition of the ELISA Femto substrate.

KDR = KDR (Homo sapiens, UniProt P35968); assay: Luciferase-coupled chemiluminescence kinase assay; format: biochemical; parameters: residues D807-V1356 of human KDR, Proqinase; purchased Proqinase; details: ATP at Km
KDR, sequence (P35968 807-1356): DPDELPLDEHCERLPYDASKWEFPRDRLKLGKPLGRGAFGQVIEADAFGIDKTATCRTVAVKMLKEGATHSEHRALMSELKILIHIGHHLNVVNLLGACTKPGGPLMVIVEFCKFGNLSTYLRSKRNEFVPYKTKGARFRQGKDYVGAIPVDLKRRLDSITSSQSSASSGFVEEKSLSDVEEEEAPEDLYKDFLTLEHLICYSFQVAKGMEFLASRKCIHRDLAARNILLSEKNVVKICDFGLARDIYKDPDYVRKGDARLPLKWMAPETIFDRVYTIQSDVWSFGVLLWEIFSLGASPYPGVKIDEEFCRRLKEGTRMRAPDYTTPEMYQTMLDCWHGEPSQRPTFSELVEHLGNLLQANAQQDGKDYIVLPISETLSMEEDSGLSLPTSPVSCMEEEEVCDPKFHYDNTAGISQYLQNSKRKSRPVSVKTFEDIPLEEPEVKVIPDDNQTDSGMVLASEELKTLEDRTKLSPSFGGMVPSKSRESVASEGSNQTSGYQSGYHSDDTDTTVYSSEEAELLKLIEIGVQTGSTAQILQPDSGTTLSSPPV
Procedure: Dose-response experiments were done using 10 different inhibitor concentrations in 384-well microtiter plates. The ATP concentration used for each assay was equivalent to the Km for each kinase.
A Luciferase-coupled chemiluminescence assay was used to measure EGFR and KDR (VEGFR2) activity. Kinase activity was measured as the percentage of ATP consumed following the kinase reaction using luciferase-luciferin-coupled chemiluminescence. Reactions were conducted in 384-well white, medium-binding microtiter plates (Greiner). […] The reaction mixture was incubated at room temperature for 4 h. Following the kinase reaction, a 20 μL aliquot of Kinase Glo (Promega) was added and luminescence signal was measured using a Victor2 plate reader (Perkin-Elmer). Total ATP consumption was limited to 50%.

COc1cc2c(Nc3ccc(Cl)c(Cl)c3F)ncnc2cc1OC[C@@H]1C[C@@H]2CN(C)C[C@@H]2C1 [XL-647, N-(3,4-dichloro-2-fluorophenyl)-7-({[(3aR,5r,6aS)-2-methyloctahydrocyclopenta[c]pyrrol-5-yl]methyl}oxy)-6-(methyloxy)quinazolin-4-amine]
ATP-Competitive (EGFR): Yes | Ki (EGFR): 0.05 nM | Reversible (EGFR): Yes | Inhibition, 10 μM XL-647 (Dopamine, Non-selective): 34.88% | inhibition at 10 µM (Histamine, H3): 38.6% | IC50 [1]: 2650 nM | Inhibition, 10 μM XL-647 ([1]; 10 μM): 87.74% | inhibition at 10 µM [2]: 22.7% | inhibition at 10 µM [3]: 7.34% | phosphorylation of EGFR, immunoblot [4]: inhibits phosphorylation of EGFR | AUC(0-t) (in vivo; female, dog, 100 mg/kg): 21200 ng·h/mL | Cmax (in vivo; female, dog, 100 mg/kg): 1100 ng/mL | half-life (in vivo; female, dog, 100 mg/kg): 14.2 h | AUC(0-t) (in vivo; female, dog, 300 mg/kg): 17100 ng·h/mL | Cmax (in vivo; female, dog, 300 mg/kg): 1610 ng/mL | half-life (in vivo; female, dog, 300 mg/kg): 12.1 h | AUC(0-t) (in vivo; female, dog, 1000 mg/kg): 34200 ng·h/mL | Cmax (in vivo; female, dog, 1000 mg/kg): 5090 ng/mL | half-life (in vivo; female, dog, 1000 mg/kg): 16.1 h | AUC(0-t) (in vivo; female, monkey, 2 mg/kg): 450 ng·h/mL | Cmax (in vivo; female, monkey, 2 mg/kg): 38 ng/mL | AUC(0-t) (in vivo; female, monkey, 6 mg/kg): 1690 ng·h/mL | Cmax (in vivo; female, monkey, 6 mg/kg): 116 ng/mL | AUC(0-t) (in vivo; female, monkey, 10 mg/kg): 4270 ng·h/mL | Cmax (in vivo; female, monkey, 10 mg/kg): 216 ng/mL | half-life (in vivo; female, monkey, 10 mg/kg): 14.9 h | AUC(0-t) (in vivo; female, monkey, 20 mg/kg): 3910 ng·h/mL | Cmax (in vivo; female, monkey, 20 mg/kg): 202 ng/mL | half-life (in vivo; female, monkey, 50 mg/kg): 14.8 h | AUC(0-t) (in vivo; female, monkey, 100 mg/kg): 28000 ng·h/mL | Cmax (in vivo; female, monkey, 100 mg/kg): 2160 ng/mL | half-life (in vivo; female, monkey, 100 mg/kg): 11.6 h | AUC(0-t) (in vivo; female, monkey, 150 mg/kg): 7030 ng·h/mL | Cmax (in vivo; female, monkey, 150 mg/kg): 379 ng/mL | half-life (in vivo; female, monkey, 150 mg/kg): 20.4 h | AUC(0-t) (in vivo; male, dog, 100 mg/kg): 8970 ng·h/mL | Cmax (in vivo; male, dog, 100 mg/kg): 407 ng/mL | half-life (in vivo; male, dog, 100 mg/kg): 10.4 h | AUC(0-t) (in vivo; male, dog, 300 mg/kg): 7790 ng·h/mL | Cmax (in vivo; male, dog, 300 mg/kg): 936 ng/mL | half-life (in vivo; male, dog, 300 mg/kg): 12.7 h | AUC(0-t) (in vivo; male, dog, 1000 mg/kg): 27300 ng·h/mL | Cmax (in vivo; male, dog, 1000 mg/kg): 3770 ng/mL | half-life (in vivo; male, dog, 1000 mg/kg): 13.2 h | AUC(0-t) (in vivo; male, monkey, 2 mg/kg): 488 ng·h/mL | Cmax (in vivo; male, monkey, 2 mg/kg): 28.4 ng/mL | AUC(0-t) (in vivo; male, monkey, 6 mg/kg): 1860 ng·h/mL | Cmax (in vivo; male, monkey, 6 mg/kg): 106 ng/mL | AUC(0-t) (in vivo; male, monkey, 10 mg/kg): 3630 ng·h/mL | Cmax (in vivo; male, monkey, 10 mg/kg): 230 ng/mL | half-life (in vivo; male, monkey, 10 mg/kg): 14.7 h | AUC(0-t) (in vivo; male, monkey, 20 mg/kg): 3900 ng·h/mL | Cmax (in vivo; male, monkey, 20 mg/kg): 194 ng/mL | half-life (in vivo; male, monkey, 50 mg/kg): 20.5 h | AUC(0-t) (in vivo; male, monkey, 100 mg/kg): 19600 ng·h/mL | Cmax (in vivo; male, monkey, 100 mg/kg): 1220 ng/mL | half-life (in vivo; male, monkey, 100 mg/kg): 20.7 h | AUC(0-t) (in vivo; male, monkey, 150 mg/kg): 14500 ng·h/mL | Cmax (in vivo; male, monkey, 150 mg/kg): 737 ng/mL | half-life (in vivo; male, monkey, 150 mg/kg): 19.8 h | dosing terminated because of toxicity observed on Days 6 and 7 (in vivo; monkey, 20 mg/kg): then terminated because | dosing terminated because of toxicity (in vivo; monkey, 50 mg/kg): bid × 2, then terminated | dosing terminated because of toxicity (in vivo; monkey, 100 mg/kg): qd × 2, then terminated | dosing terminated because of toxicity (in vivo; monkey, 300 mg/kg): qd × 2, then terminated | AUC(0-t) (in vivo; rat, 1 mg/kg): 198 ng·h/mL | Cmax (in vivo; rat, 1 mg/kg): 12.7 ng/mL | half-life (in vivo; rat, 1 mg/kg): 14.4 h | AUC(0-t) (in vivo; rat, 3 mg/kg): 776 ng·h/mL | Cmax (in vivo; rat, 3 mg/kg): 50.4 ng/mL | half-life (in vivo; rat, 3 mg/kg): 20.4 h | AUC(0-t) (in vivo; rat, 30 mg/kg): 5740 ng·h/mL | Cmax (in vivo; rat, 30 mg/kg): 319 ng/mL | half-life (in vivo; rat, 30 mg/kg): 20.4 h | AUC(0-t) (in vivo; rat, 100 mg/kg): 18300 ng·h/mL | Cmax (in vivo; rat, 100 mg/kg): 909 ng/mL | AUC(0-t) (in vivo; rat, 200 mg/kg): 29500 ng·h/mL | Cmax (in vivo; rat, 200 mg/kg): 1000 ng/mL | AUC(0-t) (in vivo; rat, 600 mg/kg): 41200 ng·h/mL | Cmax (in vivo; rat, 600 mg/kg): 1330 ng/mL | AUC(0-t) (in vivo; rat, 2000 mg/kg): 53000 ng·h/mL | Cmax (in vivo; rat, 2000 mg/kg): 1690 ng/mL | MTD [5]: 4.68 mg/kg | MTD converted to a fixed dose ([6]; Intermittent 5&9 schedule): 350 mg | subjects with unconfirmed partial response (PR) ([6]; NSCLC, Day 228): one | other subjects with prolonged stable disease lasting greater than 3 months ([6]; intermittent schedule): 14 subjects | IC50 (EGFR WT (pCMV/Lx-1)): 12 nM | IC50 (KDR): 1.5 ± 0.2 nM
